# Laboratory results from US12691114B2, “Compositions for inhibition of herpesviruses” (The Medical College of Wisconsin, Inc., priority 2020, dated 2026).
# Read-outs that look alike come from different tables or passages of the source.
# What was measured:
# HCMV Towne DNA = assay: Viral DNA by US17 real-time PCR in cells and supernatants; assay type: cell-based, human cytomegalovirus; settings: Towne MOI=0.1; NFU1827 5 μM, MLS8554 2 μM, MLS8091 1.5 μM, 2955 3 μM, GCV 5 μM
# From the text: DNA isolation and quantitative real-time (qPCR): Total DNA was isolated from non-infected control, and HCMV-infected HFFs using Wizard SV genomic DNA isolation kit (Promega, Madison, WI). To determine viral load in the supernatant, total DNA was isolated from supernatants using automated DNA extraction on the BioRobot M48 instrument (Qiagen, Valencia, CA). A US17 real-time PCR assay which targets 151-bp from the highly conserved US17 region of the CMV genome was used^39. The primers and probe for US17 are: […]
# [1] = test system: Mouse CMV (MCMV) Smith strain; assay: Plaque assay, mouse CMV in MEFs; assay type: cell-based, mouse cytomegalovirus; settings: plaque reduction; for EC50: MEFs, NA = Not active
# From the text: Viruses and antiviral assays: A recombinant pp28-luciferase Towne HCMV strain expressing luciferase under the control of the UL99 (pp28) late promoter was reported to provide a highly-sensitive and reproducible reporter for drug screening^20. A GCV-resistant HCMV pp28-luciferase that contains a C607Y mutation in UL97 was reported^37. The HCMV TB40 strain was obtained from ATCC (VR-1578). Clinical isolates of Human Herpesvirus 1 and 2 (HSV1, HSV2) were collected from the Johns Hopkins Microbiology laboratory without identifiers that could link them to a specific patient. Mouse CMV (MCMV) Smith strain (ATCC VR-1399) was used for infection of MEFs.
# Plaque reduction assay: HFFs were seeded into 12-well plates (2×10^5 cells/well) and infected with HCMV TB40 at approximately 100 plaques/well. After 90 min, media were aspirated, and DMEM containing 0.5% carboxymethyl-cellulose (CMC), 4% fetal bovine serum (FBS), and drugs were added into duplicate wells. Following incubation at 37° C. for 10-12 days the overlay was removed, and plaques were counted after crystal violet staining. For HSV1 and HSV2 replication in Vero cells, the adsorption time was 60 min and plaques were counted after 36 h. Plaque assays in MEFs were completed after 3 days.
# Inhibition of other herpesviruses: Inhibition of herpes simplex 1 and 2 (HSV1, HSV2), Epstein Barr virus (EBV) and mouse CMV (MCMV) was tested with the five compounds. Plaque reductions assays were used for HSV1, HSV2 and MCMV. Inhibition of lytic EBV replication was measured by real-time PCR in AKATA cells following IgG induction. Only MLS8554 was active against HSV1, HSV2 and MCMV (Table 2).
# HCMV TB40 = assay: Drug combination with letermovir, plaque assay TB40, Bliss model; assay type: cell-based, human cytomegalovirus; settings: read-out: EC50 (μM) of Compound 2
# Protocol: Drug combination and analysis: These experiments were performed as previously reported^40. The combination of GCV and each compound was tested using the pp28-luciferase. Briefly, 2×10^6 HFFs/plate were seeded in 96-well plates and infected with the pp28-luciferase Towne HCMV strain (MOI=1). First, a dose response curve was generated for each drug individually to determine its EC50. Then, drugs were combined at twice their EC50, diluted in DMEM with 4% FBS, followed by serial dilution and added together after infection. Luciferase activity of the combination and each drug individually was quantified at 72 hpi. The combination of letermovir and each of the new compounds was tested by the plaque assay using TB40. The same principle applied in this assay for the drug combination effect, and plaques were counted at 8 dpi. The Bliss model was used to calculate the effect of each drug combination on pp28-luciferase activity and plaque reduction. In this model, drug combination represents the product of two probabilistically independent events as described in the following equation^41.
# [formula] Where D is the drug concentration, m is the slope, and EC50 is the effective concentration resulting in 50% virus inhibition. The combined effect of two inhibitors (Fu, fractional unaffected) is computed as the product of individual effects of the two inhibitors, Fu1 and Fu2. If the ratio of observed fold inhibition divided by the expected fold inhibition is greater than 1, the compounds are synergistic. If the ratio is less than 1, the combination is considered antagonistic, and if it equals to 1 the combination is additive.
# Pattern of drug combination with GCV and letermovir: The effect of each compound alone or in combination with GCV or letermovir was tested in HCMV-infected HFFs. […] A ratio of observed fold inhibition divided by the expected fold inhibition of >1 was considered drug synergy, <1 as drug antagonism, and =1 as additive. For letermovir and its combination with each of the five compounds the EC50 was determined based on plaque assay. The combination of GCV and 2955 was also tested by plaque assay. All other combinations and Bliss coefficients were measured by pp28- luciferase.
# [2] = test system: HCMV Towne viral proteins (IE1/2, pp65, UL84, UL44); assay: Immunoblot of viral protein expression in infected HFFs; assay type: cell-based, human cytomegalovirus; settings: HCMV Towne MOI of 1 PFU/cell, 72 hpi
# Protocol: SDS-polyacrylamide gel electrophoresis and immunoblot analysis: Cell lysates containing equal amount of proteins were mixed with an equal volume of sample buffer (125 mM Tris-HCL, pH 6.8, 4% SDS, 20% glycerol and 5% β-mercaptoethanol) and boiled at 100° C. for 10 min. Denatured proteins were resolved in Tris-glycine polyacrylamide gels (8-10%) and transferred to polyvinylidine difluoride (PVDF) membranes (Bio-Rad Laboratories, Hercules, CA) by electroblotting. Membranes were incubated in blocking solution [5% w/v non-fat dry milk and 0.1% Tween-20 in PBS (PBST)] for 1 h, washed with PBST, and incubated with primary antibodies at 4° C. overnight. Membranes were washed with PBST and incubated with horseradish peroxidase-conjugated secondary antibodies in PBST for 1 h at room temperature. Following washing with PBST, protein bands were visualized by chemiluminescence using SuperSignal West Dura and Pico reagents (Pierce Chemical, Rockford, IL).
# Antibodies: The following antibodies were used—Mouse monoclonal anti-HCMV IE1 & IE2 (MAB810, Millipore, Billerica, MA), mouse monoclonal anti-HCMV UL83 (pp65, Vector Laboratories Inc., Burlingame, CA), mouse monoclonal anti-HCMV UL44, mouse monoclonal anti-HCMV UL84, and mouse anti-β-actin anti-mouse IgG (Santa Cruz Biotechnology, Santa Cruz, CA). Horseradish peroxidase (HRP)-conjugated anti-mouse IgG was from GE Healthcare (Waukesha, WI). Horseradish peroxidase (RP)-conjugated anti-rabbit IgG was from Cell Signaling (Beverly, MA).
# [3] = combination experiment with Letermovir
# [4] = Human betaherpesvirus 5, combination experiment with Letermovir
SMILES,"viral DNA replication in cells, in words (HCMV Towne DNA)","viral DNA yield in supernatant, in words (HCMV Towne DNA)","activity against MCMV, in words [1]",EC50 (HCMV TB40; [3]) [µM],"viral protein expression by Western blot, in words [2]",EC50 [1] [nM],EC50 ([1]; Murid betaherpesvirus 1) [nM],EC50 (HCMV TB40; [4]) [µM]
Nc1c(S(=O)(=O)c2cccs2)c2nc3ccccc3nc2n1Cc1ccccc1 [MLS8091],higher than that achieved with GCV,not significantly different from GCV,no activity,0.13 ± 0.05,Inhibition of all viral proteins,,,
CCc1ccc(NC(=O)[C@H](Cc2c[nH]c3ccccc23)NC(=O)[C@@H]2Cc3ccccc3CN2)cc1 [MLS8554],reduced,reduced,active,0.14 ± 0.02,"reduced expression of IE2, UL44, UL84 and pp65",11700 ± 2000,,
"CC(C)NC(=O)C1CCN(C(=O)c2cc3sccc3n2Cc2ccc(Cl)cc2)CC1 [NCGC2955, 1-(4-(4-chlorobenzyl)-4H-thieno[3,2-b]pyrrole-5-carbonyl)-N-isopropylpiperidine-4-carboxamide]",modest,modest,,,strong reduction in viral protein expression including IE1 and IE2,,1000,3.19 ± 0.17
"CCN1CCN(CCCNC(=O)c2ccc3c(c2)sc2nc(-c4ccc(OC)cc4)cn23)CC1 [NFU1827, N-[3-(4-ethylpiperazin-1-yl)propyl]-4-(4-methoxyphenyl)-7-thia-2,5-diazatricyclo [6.4.0.02,6] dodeca-1(8),3,5,9,11-pentaene-10-carboxamide]",significantly reduced,significantly reduced,no activity,,reduced the level of both IE1 and IE2,,,0.69 ± 0.07
